The values below come from EP3974434B1, “MACROLIDE DERIVATIVES, PREPARATION METHOD AND APPLICATION THEREOF” (Zhejiang Hisun Pharmaceutical Co., Ltd., priority 2019, dated 2020).

One may read the IC50 as the concentration that inhibits the measured activity by half. A low value points to greater potency in that assay. A word on the bioavailability: it is dose-corrected exposure relative to a reference, in per cent. What is called clearance is a measure of how efficiently the substance is removed, as volume per time.

One data set has as its target T1, TRKA(G595R) (Homo sapiens, UniProt P04629, G595R).
T1 construct: purchased SignalChem N16-12BG-10
As to the kind of experiment: HTRF KinEASE-TK kinase activity inhibition assay, TRKA(G595R). The format is biochemical. Conditions: ATP 7 µM. The source says:
(§1) The following method was used to determine the inhibition degrees of the compounds of the present invention on the activity of recombinant human NTRK family kinase in vitro. In this method, HTRF®KinEASE-TK tyrosine kinase kit (article number: 62TK0PEB) of Cisbio company was used, and the principle of the kit was based on time-resolved fluorescence resonance energy transfer (TF-FRET), and the inhibition of the compounds on the activity of the NTRK kinase was reflected by determining a phosphorylation degree of a biotinylated polypeptide substrate mediated by NTRK kinase. For detailed experimental operation, please refer to the kit instruction. Recombinant human wild-type NTRK proteins were purchased from Carna bioscience (the article numbers were TRKA #08-186, TRKB #08-187 and TRKC #08-197 respectively), and recombinant human mutant NTRK proteins were purchased from SignalChem (the article numbers were TRKA G595R #N16-12BG-10, TRKA G667C # N16-12CG-10, and TRKC G623R # N18-12CH-10 respectively).
(§2) The experimental methods were operated according to the steps in the kit instruction, and were briefly described as follows: a test compound was first dissolved in DMSO to prepare a storage solution, and then diluted in gradient with a buffer provided in the kit. A final concentration of the test compound in the reaction system ranged from 1,000 nM to 0.004 nM. An ATP Km value concentration of each NTRK protein was determined by using an ATP solution diluted in gradient (Sangon Biotech (Shanghai) Co., Ltd., A600311). According to the Km value obtained, the ATP concentrations in the reaction system were set as 100 µM for TRKA, 10 µM for TRKB, 50 µM for TRKC, 7 µM for TRKA(G595R), 1 µM for TRKA(G667C) and 100 µM for TRKC(G623R). The reaction was carried out in a 384-well microplate. Firstly, the compound and a certain amount of corresponding NTRK protein were added to the wells and incubated for 5 minutes to 10 minutes at room temperature. Then, the ATP solution and the biotinylated polypeptide substrate solution were added to the reaction solution and incubated with shaking at room temperature for 60 minutes. Then, an anti-phosphorylated tyrosine antibody coupled with a europium compound and streptavidin coupled with modified allophycocyanin XL665 were added to the reaction, and continuously incubated with shaking at room temperature for 1 hour. After incubation, fluorescence intensity values of each well at an excitation wavelength of 304 nm, and emission wavelengths of 620 nm and 665 nM were determined in a TF-FRET mode on a microplate reader. Compared with the fluorescence intensity ratio of a control group (0.1% DMSO), the percentage inhibition rates of the compound at each concentration were calculated, and the IC50 value of the compound was obtained by performing nonlinear regression analysis for logarithmic value of the compound concentration - inhibition rate by GraphPad Prism 5 software, which can be seen in Table 1. Table 1 IC50 data of the compounds of the present invention on TRK enzyme activity inhibition

A further data set has as its target T2, TRKB (Homo sapiens, UniProt Q16620).
T2 construct: purchased Carna bioscience 08-187
Put plainly: HTRF KinEASE-TK kinase activity inhibition assay, TRKB. The format is biochemical. Conditions: ATP 10 µM.
Excerpt: as §1, §2
On the technique in general: Time-resolved FRET reads energy transfer from a long-lived donor to a nearby acceptor.

The target of another data set is T3, TRKA (Homo sapiens, UniProt P04629).
T3 construct: purchased Carna bioscience 08-186
As to the kind of experiment: HTRF KinEASE-TK kinase activity inhibition assay, TRKA. The format is biochemical. Particulars: ATP 100 µM.
Excerpt: as §1, §2

Another data set has as its target T4, TRKC (Homo sapiens, UniProt Q16288).
T4 construct: purchased Carna bioscience 08-197
As to the kind of experiment: HTRF KinEASE-TK kinase activity inhibition assay, TRKC. It counts as biochemical. Conditions: ATP 50 µM.
Excerpt: as §1, §2

For a further data set, the target named is T5, TRKA(G667C) (Homo sapiens, UniProt P04629, G667C).
T5 construct: purchased SignalChem N16-12CG-10
As to the kind of experiment: HTRF KinEASE-TK kinase activity inhibition assay, TRKA(G667C). It counts as biochemical. Conditions: ATP 1 µM.
Excerpt: as §1, §2

The nature of data set [1]: Pharmacokinetic study on ICR mice (plasma, LC-MS/MS). The format is in vivo. Particulars: male, mouse; for AUC(0-inf): read-out: Area under curve AUC0-∞; for half-life: read-out: Half-life T1/2(h) (converted). The protocol:
ICR mice, male, 29.0 g to 33.8g, purchased from Beijing Charles River Laboratory Animal Technology Co., Ltd.
Intravenous injection group: an appropriate amount of drug was weighed, and added with mixed solvent (DMA: 30% Solutol HS-15: Saline = 10: 10: 80 (v/v/v)) to prepare the drug with a final concentration of 0.2 mg/mL.
Oral gavage administration group: an appropriate amount of drug was weighed, added with an appropriate amount of sodium carboxymethyl cellulose (CMC-Na, containing 0.5% Tween 80), vortex shaked, and ultrasonically prepared into […] suspension.
For ICR mice, each compound to be tested was divided into an intravenous injection group (9 mice in each group) and an intragastric group (9 mice in each group). The ICR mice were fasted overnight and then administered by orbital intravenous injection (administration dose of 1 mg/kg, and administration volume of 5 mL/kg) and administered by intragastric injection (administration dose of 5 mg/kg, and administration volume of 10 mL/kg), and ate 4 hours after administration.
About 0.2 mL of blood was collected via jugular vein before administration and 0.083 hour, 0.25 hour, 0.5 hour, 1 hour, 2 hours, 4 hours, 8 hours, 12 hours and 24 hours after administration, and heparin sodium was used for anticoagulation. The collected blood samples were placed on ice, and plasma was separated by centrifugation (centrifugation condition: 1500 g, 10 minutes). The collected plasma was stored at-40°C to -20°C before analysis.
LC-MS/MS was used to determine the contents of different compounds to be tested in mouse plasma after intravenous injection and intragastric administration.
The pharmacokinetic parameters of the compounds of the present invention and the positive control can be seen in Table 8. Table 8 Results of pharmacokinetic parameters

Where [2] appears, read: intravenous, 1 mg/kg, injection.

Where two headings read alike, the source gives them in different places.

T4 sequence (Q16288 32-839): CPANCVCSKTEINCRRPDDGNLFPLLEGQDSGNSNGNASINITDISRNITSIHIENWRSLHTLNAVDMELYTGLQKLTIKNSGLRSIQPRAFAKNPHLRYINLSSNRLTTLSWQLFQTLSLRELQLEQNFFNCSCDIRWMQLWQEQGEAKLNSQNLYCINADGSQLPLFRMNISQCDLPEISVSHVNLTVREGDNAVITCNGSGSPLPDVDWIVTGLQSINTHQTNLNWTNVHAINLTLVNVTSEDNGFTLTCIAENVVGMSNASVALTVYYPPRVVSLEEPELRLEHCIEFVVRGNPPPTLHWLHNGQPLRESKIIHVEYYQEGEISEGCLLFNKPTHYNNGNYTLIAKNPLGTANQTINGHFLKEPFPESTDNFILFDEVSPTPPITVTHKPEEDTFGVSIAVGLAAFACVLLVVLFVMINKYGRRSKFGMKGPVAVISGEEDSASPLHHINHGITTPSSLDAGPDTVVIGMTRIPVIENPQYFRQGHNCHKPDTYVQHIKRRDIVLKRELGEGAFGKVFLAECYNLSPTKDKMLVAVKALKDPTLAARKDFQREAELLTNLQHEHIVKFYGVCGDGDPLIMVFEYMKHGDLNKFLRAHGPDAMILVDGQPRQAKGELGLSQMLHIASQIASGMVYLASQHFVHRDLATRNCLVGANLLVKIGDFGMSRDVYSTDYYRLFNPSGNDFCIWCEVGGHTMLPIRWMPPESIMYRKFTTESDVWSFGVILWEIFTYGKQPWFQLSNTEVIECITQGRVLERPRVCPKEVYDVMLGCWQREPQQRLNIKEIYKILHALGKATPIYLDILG
T2 sequence (Q16620 32-822): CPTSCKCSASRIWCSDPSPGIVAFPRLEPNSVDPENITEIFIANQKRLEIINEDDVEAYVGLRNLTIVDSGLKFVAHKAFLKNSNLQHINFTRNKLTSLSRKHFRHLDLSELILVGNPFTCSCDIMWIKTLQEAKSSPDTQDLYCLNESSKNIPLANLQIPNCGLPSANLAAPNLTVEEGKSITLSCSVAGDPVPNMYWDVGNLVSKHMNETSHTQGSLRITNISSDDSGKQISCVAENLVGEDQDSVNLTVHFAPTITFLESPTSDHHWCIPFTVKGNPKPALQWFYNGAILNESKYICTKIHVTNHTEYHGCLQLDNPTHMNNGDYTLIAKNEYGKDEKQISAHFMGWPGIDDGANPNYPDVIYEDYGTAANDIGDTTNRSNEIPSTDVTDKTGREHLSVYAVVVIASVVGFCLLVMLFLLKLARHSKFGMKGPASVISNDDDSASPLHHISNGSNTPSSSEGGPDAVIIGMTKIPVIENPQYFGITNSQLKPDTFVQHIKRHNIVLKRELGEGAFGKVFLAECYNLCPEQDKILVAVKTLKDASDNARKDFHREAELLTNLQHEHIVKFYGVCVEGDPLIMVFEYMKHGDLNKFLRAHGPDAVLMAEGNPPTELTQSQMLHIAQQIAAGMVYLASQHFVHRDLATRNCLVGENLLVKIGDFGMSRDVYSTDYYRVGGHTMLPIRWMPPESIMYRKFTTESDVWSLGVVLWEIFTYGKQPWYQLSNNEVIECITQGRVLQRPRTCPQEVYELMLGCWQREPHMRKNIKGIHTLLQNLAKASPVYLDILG
T5 sequence (P04629 33-796 G667C): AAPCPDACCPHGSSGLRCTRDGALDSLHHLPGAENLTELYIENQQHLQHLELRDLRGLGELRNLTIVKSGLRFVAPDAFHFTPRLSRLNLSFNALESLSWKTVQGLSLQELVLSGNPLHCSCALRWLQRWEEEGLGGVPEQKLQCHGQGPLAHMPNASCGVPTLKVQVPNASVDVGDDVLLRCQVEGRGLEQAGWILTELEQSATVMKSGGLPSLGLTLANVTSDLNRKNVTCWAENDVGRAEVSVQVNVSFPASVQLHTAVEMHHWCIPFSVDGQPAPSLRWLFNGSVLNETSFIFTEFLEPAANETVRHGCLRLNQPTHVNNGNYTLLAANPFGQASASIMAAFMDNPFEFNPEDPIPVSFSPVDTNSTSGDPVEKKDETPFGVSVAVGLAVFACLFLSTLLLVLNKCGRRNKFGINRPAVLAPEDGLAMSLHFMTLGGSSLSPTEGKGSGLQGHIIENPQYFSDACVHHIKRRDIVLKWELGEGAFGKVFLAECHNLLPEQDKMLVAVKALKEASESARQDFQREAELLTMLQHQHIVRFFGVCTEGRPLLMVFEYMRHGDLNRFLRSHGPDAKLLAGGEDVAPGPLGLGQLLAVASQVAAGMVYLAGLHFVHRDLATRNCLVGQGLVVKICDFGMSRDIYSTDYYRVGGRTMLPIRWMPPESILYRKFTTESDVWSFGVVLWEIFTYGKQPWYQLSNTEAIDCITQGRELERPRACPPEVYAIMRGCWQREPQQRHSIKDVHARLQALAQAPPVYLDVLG
T1 sequence (P04629 33-796 G595R): as the sequence (P04629 33-796 G667C) above, with G563R, C635G counted along it
T3 sequence (P04629 33-796): as the sequence (P04629 33-796 G667C) above, with C635G counted along it

In the case of `C[C@H]1Nc2ccn3ncc(c3n2)C(=O)NCC2Cc3cc(F)cc1c3O2` (stereo partly drawn) [Example 1, (3R)-6-fluoro-3-methyl-10-oxa-2,13,17,18,21-pent aazapentacyclo[13.5.2.1^8,11.0^4,9.0^18,22]tricosa-1(21), 4,6,8, 15(22),16, 19-heptaen-14-one], the IC50 against TRKA(G595R) worked out at 11.3 nM; against TRKB, 0.29 nM; at TRKA, 1.66 nM; against TRKC, 0.5 nM.
In the same order, the values of `C[C@H]1Nc2ccn3ncc(c3n2)C(=O)NCC[C@H]2Cc3cc(F)cc1c3O2` [Example 3, (3R,11R)-6-fluoro-3-methyl-10-oxa-2,14,18,19,22-pentaazapentacyclo[14.5.2.1^8,11.0^4,9.0^19,23]tetracosa-1(22),4,6,8,16(23),17,20-heptaen-15-one] are 3.31 nM, 0.33 nM, 1.7 nM and 0.47 nM.
Consider `C[C@H]1Nc2ccn3ncc(c3n2)C(=O)NCCC2=Cc3cc(F)cc1c3O2` [Example 6, (3R)-6-fluoro-3-methyl-10-oxa-2,14,18,19,22-pent aazapentacyclo[14.5.2.1^8,11.0^4,9.0^19,23]tetracosa-1(2 2),4,6,8,11(24),16(23),17,20-octaen-15-one], for which the values for the IC50 on TRKA(G595R), against TRKB and against TRKA were 11.3 nM, 0.34 nM and 1.05 nM, respectively.
Consider `C[C@H]1Nc2ccn3ncc(c3n2)C(=O)NC[C@]2(C)Cc3cc(F)c(F)c1c3O2` [Example 11, (3R,11S)-5,6-difluoro-3,11-dimethyl-10-oxa-2,13,1 7,18,21-pentaazapentacyclo[13.5.2.1^8,11.0^4,9.0^18,22]t ricosa-1(21),4,6,8,15(22),16,19-heptaen-14-one], for which the IC50 on TRKA was determined as 4.5 nM; on TRKC, 0.63 nM.
In the same order, the values of `COC[C@@]12CNC(=O)c3cnn4ccc(nc34)N[C@H](C)c3cc(F)cc(c3O1)C2` [Example 15, (3R,11R)-6-fluoro-11-(methoxymethyl)-3-methyl-10-oxa-2,13,17,18,21-pentaazapentacyclo[13.5.2.1 ^8,11.0^4,9.0^18,22]tricosa-1(21),4,6,8,15(22),16,19-hept aen-14-one] are 2.8 nM and 0.37 nM.
For `C[C@H]1Nc2ccn3ncc(c3n2)C(=O)NCC2(CF)Cc3cc(F)cc1c3O2` (stereo partly drawn) [Example 18, (3R)-6-fluoro-11-(fluoromethyl)-3-methyl-10-oxa-2,13,17,18,21-pentaazapentacyclo[13.5.2.1^8,11.0^4,9. 0^18,22]tricosa-1(21),4,6,8,15(22),16,19-heptaen-14-one], the concentration for half-maximal inhibition (IC50) was 3.9 nM against TRKA(G595R); 0.17 nM against TRKB; 0.63 nM at TRKA; 6.11 nM against TRKA(G667C); 1.37 nM on TRKC.
Turning to `C[C@H]1Nc2ccn3ncc(c3n2)C(=O)NCC2(CO)Cc3cc(F)cc1c3O2` (stereo partly drawn) [Example 19, (3R)-6-fluoro-11-(hydroxymethyl)-3-methyl-10-ox a-2,13,17,18,21-pentaazapentacyclo[13.5.2.1^8,11.0^4, 9.0^18,22]tricosa-1(21),4,6,8,15(22),16,19-heptaen-14-one], the 50% inhibitory concentration (IC50) on TRKA(G595R) was 19.3 nM; on TRKB it was 0.25 nM; on TRKA, 3.4 nM; against TRKC, 1.16 nM.
For `C[C@H]1Nc2ccn3ncc(c3n2)C(=O)NCC[C@@]2(C)Cc3cc(F)cc1c3O2` [Example 20, (3R,11R)-6-fluoro-3,11-dimethyl-10-oxa-2,14,18,1 9,22-pentaazapentacyclo[14.5.2.1^8,11.0^4,9.0^19,23]tetra cosa-1(22),4,6,8,16(23),17,20-heptaen-15-one], the results for the IC50 against TRKA and at TRKA(G667C) were 5.9 nM and 4.2 nM, respectively.
Regarding `C[C@H]1Nc2ccn3ncc(c3n2)C(=O)NCC[C@]2(C)Cc3cc(F)cc1c3O2` [Example 21, (3R,11S)-6-fluoro-3,11-dimethyl-10-oxa-2,14,18,1 9,22-pentaazapentacyclo[14.5.2.1^8,11.0^4,9.0^19,23]tetra cosa-1(22),4,6,8,16(23),17,20-heptaen-15-one], the 50% inhibitory concentration (IC50) against TRKA was 18.5 nM; against TRKA(G667C), 24.6 nM.
Regarding `C[C@H]1Nc2ccn3ncc(c3n2)C(=O)NC[C@]2(C)COc3cc(F)cc1c3O2` [Example 23, (2R,14R)-19-fluoro-2,14-dimethyl-16,22-dioxa-3,5 ,7,8,12-pentaazapentacyclo[12.6.2.2^4,7.0^6,10.0^17,21]te tracosa-1(20),4,6(10),8,17(21),18,23-heptaen-11-one], the concentration for half-maximal inhibition (IC50) was 15.3 nM on TRKA(G595R) and 4.83 nM on TRKA.
In the case of `C[C@H]1Nc2ccc3ncc(n3n2)C(=O)NC[C@@]2(C)Cc3cc(F)cc1c3O2` [Example 26, (3R,11R)-6-fluoro-3,11-dimethyl-10-oxa-2,13,17,21,22-pentaazapentacyclo[13.5.2.1^8,11.0^4,9.0^18 ,22]tricosa-1(21),4,6,8,15,17,19-heptaen-14-one], the IC50 turned out to be 8.6 nM on TRKA(G595R); 1.3 nM at TRKB; 0.97 nM on TRKA; 15.5 nM at TRKA(G667C); 0.8 nM against TRKC.
As for `C[C@H]1CNC(=O)c2cnn3ccc(nc23)N[C@H](C)c2cc(F)ccc2O1` [repotrectinib, reference compound], the bioavailability in data set [1] (5 mg/kg oral intake vs 1 mg/kg injection, read-out: Bioavailability F(%)) turned out to be 13%. Besides, the AUC(0-inf) in data set [1] (5 mg/kg, oral intake) is 530 ng·h/mL; in data set [1] (setting [2]) it was 824 ng·h/mL. Also, the Cmax in data set [1] (5 mg/kg, oral intake, read-out: Blood concentration Cmax) was 154 ng/mL. Besides, the half-life in data set [1] (5 mg/kg, oral intake) was 2.93 h; in data set [1] (setting [2]), 3.9 h. Moreover, in data set [1] (intravenous, 1 mg/kg, injection, read-out: Clearance rate), the clearance was 20.2 mL/min/kg.
